Results on five compounds are retold here after patent US6528656B1, “Linear or cyclic aminophosphonates as pH markers in phosphorus 31 NMR spectroscopy” (Centre National de la Recherche Scientifique (CNRS), priority 1998, dated 2003).

Read-outs that look alike come from different tables or passages of the source.

Data set [1] deals with tumour cell line. The following applies: cited from earlier work.
Data set [2] relates to myocardial or liver cells. The data set is described as follows: toxicity, cell penetration and 31P NMR pH measurement in myocardial or liver cells. The class given is cell-based. The source says:
The compounds of formulae (II.1) and (II.2) are on the whole particuarly non-toxic and penetrate into myocardial or liver cells (in sufficient amount to be observed but in a sufficiently small amount to remain non-toxic), thus allowing a measurement of the pH values of intracellular and extracellular media.

The nature of data set [3]: physchem.
The nature of data set [4]: physchem. The class given is physicochemical. The following applies: 37° C., 5 mM solution in phosphate buffer, 400 MHz NMR, from titration curve.
Experimental: The results obtained allowed titration curves to be plotted.
Each measurement was taken at 37° C. using a 5 mM solution of the test compound in a phosphate buffer on a 400 MHz NMR spectroscopy machine.
The variation in the phosphorus-31 chemical shift was studied as a function of the pH: the measurements were taken at 22° C., or 37° C. respectively, on a 400 MHz NMR machine using 5 mM solutions of the test compound in a phosphate buffer.

`O=CC[C@@H](O)[C@H](O)[C@H](O)COP(=O)(O)O` [2-deoxyglucose 6-phosphate, 2-Deoxyglucose 6-phosphate]: in data set [1], the metabolism result is “not metabolized” and the toxicity entry was “toxic to the cell”.

As for `CCOP(=O)(OCC)C1(C)CCCN1` (centres unmarked) [Compound 1, 2-methyl-2-diethoxyphosphorylpyrrolidine], the “variations in the phosphorus chemical shift as a function of intracellular acidosis versus intracellular Pi” value in data set [2] (in the course of ischaemia, cytosolic medium) was “fully correlated”. The “pH measurements in liver compartments (extracellular, cytosolic, intravesicular medium)” value in data set [2] (liver, very acidic (pH 5) vesicles) is on record as “allows three measurements at the same time”.

Turning to `CCOP(=O)(OCC)C1(P(=O)(OCC)OCC)CCCN1` [Compound 2, 2,2-bis(diethoxyphosphoryl) pyrrolidine], the pKa in data set [3] stood at 3.5; in data set [4], 3.47.

With `CC(C)OP(=O)(OC(C)C)C1(P(=O)(OC(C)C)OC(C)C)CCCN1` [Compound 3, 2,2-bis(diisopropoxyphosphoryl) pyrrolidine], the pKa in data set [4] worked out at 3.9.

In turn, `CCOP(=O)(OCC)C1(C)CCC(C)(P(=O)(OCC)OCC)N1` (centres unmarked) [Compound 4, 2,5-bis(diethoxyphosphoryl)-2,5-dimethylpyrrolidine] showed a pKa in data set [4] of 2.45.
